Columns and labels:
H1975 [1] = assay: Effects of gefitinib or CL-387,785 on H1975, MTT growth rate; type: cell-based, human; conditions: 0.01 to 10 μM, 72 hours, FIG. 8
Method: (§1) After 80% confluent H1975 was stripped and collected, the cells were seeded at 2×10^3 cells/well on 96-well plates and cultured for 24 hours. After that, gefitinib or CL-387,785 was added to each well so that the final concentration might be set to the seven levels of 0.01 to 10 μM, and then culture was continued for 72 hours. After that, 50 μl, of an MTT solution (2 mg/mL, manufactured by Sigma) was added and incubation was performed at 37° C. for 2 hours. The culture media were removed, and dark blue crystals were dissolved by adding 100 μL of DMSO. The absorbance was measured with a microplate reader MTP-120 (Corona Electric Co., Ltd.) at the detection and reference wavelengths of 550 nm and 630 nm, respectively. The growth rate was shown as a relative value based on an untreated control. Each experiment was performed in triplicate and repeated thrice independently.

H1975 [2] = assay: Effects of SU11274 on H1975 with HGF-induced CL-387,785-resistance; type: cell-based, human; conditions: CL-387,785 0.3 μM, HGF 50 ng/mL, antibody 2 μg/mL, NK4 0.3 μM, 72 hours, FIG. 12
Method: H1975 was seeded at 2×10^3 cells/well on 96-well plates and cultured for 24 hours. […] The degree of cell growth was measured by the MTT method and the growth rate was calculated in the same manner as in the above (a).

PC-9 [3] = assay: Effects of SU11274 on PC-9 with HGF-induced gefitinib-resistance; type: cell-based, human; conditions: HGF 20 ng/mL, gefitinib 0.3 μM, antibody 1 μg/mL, NK4 0.3 μM, SU11274 0.3 μM, 72 hours, FIG. 11
Method: as §1, with “PC-9” for “After 80% confluent H1975”, “was” for “was stripped and collected, the cells were”, “After that, gefitinib or CL-387,785 was added to each well so that the final concentration might be set to the seven levels of 0.01 to 10 μM, and then culture was continued for 72 hours.” left out, “μL” for “μl,”

PC-9/mock = assay: PC-9 transfected with vector without the HGF gene, MTT growth rate; type: cell-based, human; conditions: gefitinib 0.3 μM, 72 hours, FIG. 4
Method: (§2) An HGF expression vector was prepared according to the description in “Ueki T, Kaneda Y, Tsutsui H, et al. Hepatocyte growth factor gene therapy of liver cirrhosis in rats. Nature Medicine 5, 226-230 (1 Feb. 1999)”. On the day before transfection, PC-9 prepared in a culture medium without any antibiotics was seeded at 2×10^4 cells/400 μL on 24-well plates and then cultured for 24 hours. The HGF expression vector was transfected into the cells by use of Lipofectamine 2000 (1 μL) (PC-9/HGF). As a control, a vector without the HGF gene was similarly transfected into the cells (PC-9/mock). After 24-hour culture, the cells were washed with PBS. Then, 0.3 μM of gefitinib (final concentration), 2 μg/mL of the anti-human HGF neutralizing antibody (final concentration) and/or 2 μg/mL of the control IgG (final concentration) were added, or not added, and then culture was continued for 72 hours. After 72-hour culture, the degree of cell growth was measured by the MTT method and the growth rate was calculated in the same manner as in Example 1.

PC-9/HGF = assay: PC-9 transfected with HGF expression vector, MTT growth rate; type: cell-based, human; conditions: gefitinib 0.3 μM, 72 hours, FIG. 4
Method: as §2

[4] = system: tumor formed of PC-9 and MRC-5 cells; assay: Xenograft tumor (PC-9 + MRC-5) transplanted into SCID mice; type: in vivo; conditions: PC-9 + MRC-5 s.c., days 4 to 16, gefitinib 25 mg/kg/day oral, antibody 5 mg/kg/day i.p., NK4 9 mg/kg/day i.p., FIG. 6
Method: SCID mice (female, 5 weeks old) were purchased from CLEA Japan.
100 μL of a cell suspension containing PC-9 (5×10^6 cells) and MRC-5 (5×10^6 cells) was subcutaneously inoculated from the back skin of each SCID mouse. Four days later, mice bearing a tumor exceeding 4 mm in diameter were randomly divided into 6 groups (5 mice per group) as shown in Table 1.
In gefitinib-treated groups (groups 4, 5 and 6 in Table 1), gefitinib (25 mg/kg/day) was orally administered once daily in the morning for 13 days from 4 days to 16 days after cell inoculation. In gefitinib-non-treated groups (groups 1, 2 and 3 in Table 1), a water containing 1% Tween80 was orally administered once daily in a similar manner to the above. In anti-HGF neutralizing antibody-treated groups (groups 2 and 5 in Table 1), the anti-HGF neutralizing antibody (5 mg/kg/day) was intraperitoneally administered once daily immediately after gefitinib administration for 13 days from 4 days to 16 days after cell inoculation. In NK4-treated groups (groups 3 and 6 in Table 1), NK4 (9 mg/kg/day) was intraperitoneally administered in divided portions twice a day in the morning immediately after gefitinib administration and in the evening for 13 days from 4 days to 16 days after cell inoculation.
The width and length of tumor were measured every other day, and the tumor area (width×length) was calculated. […]

HCC827 [5] = assay: Induction of gefitinib resistance by various growth factors; type: cell-based, human; conditions: growth factor 20 ng/mL, gefitinib 0.3 or 1 μM, 72 hours, FIG. 3(b)
Method: (§3) In the same manner as in the above (a), PC-9 or HCC827 was seeded at 2×10^3 cells/well on 96-well plates, and after 24-hour culture, gefitinib was added to the wells so that the final concentration might be 0.3 or 1 μM. HGF, EGF, TGF-α or IGF-I was further added to give a final concentration of 20 ng/mL and then culture was continued for 72 hours. Wells without gefitinib and wells into which a culture medium was added instead of the growth factors were prepared for this experiment. After 72-hour culture, the degree of cell growth was measured by the MTT method and the growth rate was calculated in the same manner as in the above (a).

PC-9 [6] = assay: as above; type: cell-based, human; conditions: growth factor 20 ng/mL, gefitinib 0.3 or 1 μM, 72 hours, FIG. 3(a)
Method: as §3

PC-9 [7] = assay: Single culture of PC-9 with or without HGF, MTT growth rate; type: cell-based, human; conditions: PC-9 single culture; HGF 50 ng/mL; gefitinib 0.3 μM; 72 hours; FIG. 5
Method: In the case of single culture of PC-9, PC-9 was seeded in each well of 24-well plates at 8×10^3 cells/700 μL and then cultured for 24 hours. After that, 50 ng/mL of HGF (final concentration) was added or not added, 0.3 μM of gefitinib (final concentration) was added or not added, 2 μg/mL of the control IgG (final concentration) or 2 μg/mL of the anti-human HGF neutralizing antibody (final concentration) was added or not added, and then culture was continued for 72 hours. After 72-hour culture, the degree of cell growth was measured by the MTT method and the growth rate was calculated in the same manner as in Example 1.

HCC827 [8] = assay: Induction of gefitinib resistance by HGF, MTT growth rate; type: cell-based, human; conditions: HGF 2 to 50 ng/mL, gefitinib 0.01 to 1 μM, 72-hour culture, FIG. 1(b)
Method: (§4) PC-9 or HCC827 was seeded at 2×10^3 cells/well on 96-well plates and cultured for 24 hours. After that, gefitinib and HGF were added to the wells in combinations thereof at different concentrations. Specifically, gefitinib was added to each well so that the final concentration might be set to the five levels of 0.01 to 1 μM. Wells without gefitinib were also prepared for this experiment. An HGF solution was added to the wells so that the final concentration might be set to the five levels of 2 to 50 ng/mL. Wells without HGF were also prepared for this experiment. After 72-hour culture, 50 μL of an MTT solution (2 mg/mL, manufactured by Sigma) was added and incubation was performed at 37° C. for 2 hours. The culture media were removed, and dark blue crystals were dissolved by adding 100 μL of DMSO. The absorbance was measured with a microplate reader MTP-120 (Corona Electric Co., Ltd.) at the detection and reference wavelengths of 550 nm and 630 nm, respectively. The growth rate was shown as a relative value based on an untreated control. Each experiment was performed in triplicate and repeated thrice independently.

PC-9 [9] = assay: as above; type: cell-based, human; conditions: HGF 2 to 50 ng/mL, gefitinib 0.01 to 1 μM, 72-hour culture, FIG. 1(a)
Method: as §4

H1975 [10] = assay: Induction of CL-387,785 resistance by HGF; type: cell-based, human; conditions: HGF 50 ng/mL, CL-387,785 0.03 to 3 μM, 72 hours, FIG. 9
Method: In the same manner as in the above (a), H1975 was seeded at 2×10^3 cells/well on 96-well plates. After 24-hour culture, CL-387,785 was added to the wells so that the final concentration might be set to the five levels of 0.03 to 3 μM. An HGF solution was further added to give a final concentration of 50 ng/mL, or was not added, and then culture was continued for 72 hours. The degree of cell growth was measured by the MTT method and the growth rate was calculated in the same manner as in the above (a).

With `CC#CC(=O)Nc1ccc2ncnc(Nc3cccc(Br)c3)c2c1` [CL-387,785] the “sensitivity of H1975 to the drug (growth rate)” value (H1975 [1]) was “sensitive”.

`Cc1[nH]c(/C=C2\C(=O)Nc3ccc(S(=O)(=O)N(C)c4cccc(Cl)c4)cc32)c(C)c1C(=O)N1CCN(C)CC1` [SU11274, reference compound] was tested, and the “inhibition of HGF-induced hyposensitivity of H1975 to CL-387,785” value (H1975 [2]) was “significantly inhibited” and the “inhibition of HGF-induced hyposensitivity of PC-9 to gefitinib” value (PC-9 [3]) was “significantly inhibited”.

With `COc1cc2ncnc(Nc3ccc(F)c(Cl)c3)c2cc1OCCCN1CCOCC1` [gefitinib] the “sensitivity of H1975 to the drug (growth rate)” value (H1975 [1]) was “resistant”, the “sensitivity of cells to gefitinib (growth rate)” value (PC-9/mock) was “sensitive” and the “sensitivity of cells to gefitinib (growth rate)” value (PC-9/HGF) was “less sensitive”. For the same compound, the “tumor volume / tumor growth over time” value [4] was “increase in tumor volume was inhibited, but no significant regression was observed”.

“EGF (NSDSECPLSHDGYCLHDGVCMYIEALDKYACNCVVGYIGERCQYRDLKWWELR; Epidermal growth factor; UniProt P01133 971-1023, looked up) [growth factor purchased from Invitrogen]” was tested, and the “induction of gefitinib resistance by growth factor (growth rate)” value (from here on “induction … by growth factor (growth rate)”) (HCC827 [5]) was “slightly induced gefitinib resistance” and the “induction … by growth factor (growth rate)” value (PC-9 [6]) was “slightly induced gefitinib resistance”.

For HGF, the “induction … by growth factor (growth rate)” value (HCC827 [5]) was “remarkable capability of inducing gefitinib resistance”, the “induction … by growth factor (growth rate)” value (PC-9 [6]) was “remarkable capability of inducing gefitinib resistance” and the “induction of gefitinib resistance (hyposensitivity) of PC-9” value (PC-9 [7]) was “induced gefitinib resistance”. The “induction of gefitinib resistance (growth rate)” value (HCC827 [8]) was “induced gefitinib resistance of PC-9 and HCC827 in a concentration-dependent manner”, the “induction of gefitinib resistance (growth rate)” value (PC-9 [9]) was “induced gefitinib resistance of PC-9 and HCC827 in a concentration-dependent manner” and the “effect of HGF on sensitivity of H1975 to CL-387,785” value (H1975 [10]) was “reduced the sensitivity of H1975 to CL-387,785”.

In the case of IGF-I, the “induction … by growth factor (growth rate)” value (HCC827 [5]) is reported as “slightly induced gefitinib resistance” and the “induction … by growth factor (growth rate)” value (PC-9 [6]) is reported as “slightly induced gefitinib resistance”.

For TGF-α, the “induction … by growth factor (growth rate)” value (HCC827 [5]) was “slightly induced gefitinib resistance” and the “induction … by growth factor (growth rate)” value (PC-9 [6]) was “slightly induced gefitinib resistance”.
